The values that follow are results of earlier work, collected in patent USRE47141E1, “Methods of treating fibrosis, cancer and vascular injuries” (EWHA University—Industry Collaboration Foundation, priority 2010, dated 2018).

The subject of series [1] is SBE-luc and GFAP-luc mice immunized with MOG35-55. Particulars: cited from earlier work.
The subject of the next series is Tramp C2. The settings on record: mice treated with murine prostate cancer cell line Tramp C2; cited from earlier work.
The test system of another series is UUO rats. Particulars: cited from earlier work.
In a further series the test system is rats. The settings on record: cited from earlier work.

`Cc1cccc(-c2[nH]c(Cc3cccc(C(N)=O)c3)nc2-c2ccc3nccnc3c2)n1` [IN-1130]: the “experimental autoimmune encephalomyelitis (EAE)” value in series [1] was “ameliorates”. Also, the tumor volume result with Tramp C2 is “dramatically reduces”. Further, in the series on UUO rats, the “renal fibrosis induced by unilateral ureteral obstruction (UUO)” value was “effectively suppresses”. Besides, in the series on rats, the penile curvature result is listed as “corrects” and the tunical fibrosis entry is reported as “lessens”.
